Source: patent US5891848A, “Peptide fragments” (Nippon Zoki Pharmaceutical Co., Ltd., priority 1995, dated 1999)
No end group written: not given here.

Legend:
[1] = test system: senility-accelerated mice (SAM-P/8 strain); experiment: Passive avoidance learning test; format: in vivo, mouse; details: SAM-P/8, sixth month after birth; s.c. once a week from third week after birth; group 1 150 μg/kg/day, group 2 80 μg/kg/day; test trial 24 hours after acquisition trial; compared to control (SAM-P/8); FIG. 1
Method: In a passive avoidance learning test, remembering ability of senility-accelerated mice of the SAM-P/8 strain decreases from the third month from birth. The effect of the peptide of the present invention for improving said learning disability was investigated. Thus, a mouse was placed in front of a dark box and its ability to remember what it learned was measured using the time it took to come into the box as an index. Electric current was turned on in the dark box after the mouse came into the box so that an electric shock was applied. […] The test trial was conducted 24 hours after the acquisition trial.
The peptide of the present invention was subcutaneously injected once a week since the third week after birth and its effect of improving the passive avoiding ability which was lowered in SAM-P/8 was investigated.

[2] = test system: neuronal death in the CA1 subfields of the hippocampus; experiment: Protective effect on cerebral neurons after ischemic insult (common carotid artery occlusion); format: in vivo, Wister-strain rat; details: continuous intracerebroventricular infusion 850 μg/ml; carotid occlusion 15 minutes; histology five days after ischemia; 4 rats/group
Method: Additionally, the effects of the peptides of the present invention on neuronal death in the CA1 subfields of the hippocampus were tested as follows:
The peptide fragment of the present invention, the 1-29 amino acid residue peptide fragment of bovine aFGF in which Cys, an amino acid at the 16-position, was substituted with Ala or the 1-29 amino acid residue peptide fragment of bovine aFGF in which Cys, an amino acid at the 16-position, was substituted with Ser, was administered by continuous intracerebroventricular infusion (850 μg/ml. respectively) into the lateral cerebral ventricles of Wister-strain rat (250-300 g. 4 rats/a group) and their common carotid arteries were occluded for 15 minutes to induce ischemic insult. Five days after ischemia, the rats were deeply anesthetized with sodium pentobarbital and transcardially perfused. Then, the brains were frozen and cut coronally in 20 μm sections by microtomy, and stained by Nissl bodies. The sections were examined by histological analysis. As a result of the analyses, the protecting effect of the peptide of the present invention on neuronal death in the CA1 subfields of the hippocampus was observed (Ala-substituted peptide; 3/4 rats, Ser-substituted peptide; 4/4 rats).

[3] = test system: senility-accelerated mice (SAM-P/8 strain); experiment: Water maze task (Morris' water maze task); format: in vivo, mouse
From the text: A platform was placed at 1 cm under the water surface in a circular swimming pool for the experiment and then fine Styrofoam beads were uniformly sprinkled onto the water surface so that a mouse was unable to recognize the platform. Any hint to the mouse in the space around the device (such as persons in charge of the experiment, table, fluorescent light and machines for the experiment) was always kept constant during the experimental period. Four starting points were randomly selected, a mouse was placed into the water, turning its head to the wall of the pool, and its diving time until it escaped to the platform was measured. When the mouse climbed up to the platform, it was left as it was for 15 seconds. […] The case from one starting point was defined as one trial and four trials were done every ten minutes and defined as one block. Four blocks were carried out in total every other day. Senility-accelerated mice (SAM-P/8) which were not administered any compounds of the present invention were used as a control. […] After the above-menfioned four blocks were conducted, the platform was removed, the mouse was permitted to swim for a certain period, and the time for swimming in each of the four areas was measured. […] Therefore, the learning and remembering abilities could be determined measuring the staying time in each of the four areas.

FNLPLGNYKKPKLLYASNGGTFLRILPDG
latency (seconds): time until the mouse came into the dark box in the test trial [1]: unexpectedly higher
protecting effect on neuronal death in the CA1 subfields of the hippocampus observed [2]: 3/4
diving time (latency) until escape to the platform, Block 1 to Block 4 ([3]; SAM-P/8, ninth month from birth, dosing as in passive avoidance test, compared to the decrease for control (SAM-P/8), FIG. 2): unexpectedly decreased
staying time in area 3, where the platform was located ([3]; SAM-P/8, platform removed after four blocks, compared to control (SAM-P/8), t-test p<0.001, FIG. 3): unexpectedly higher
